# Test results from patent publication US4595530A, “Thiodeazapurine derivatives” (Takeda Chemical Industries, Ltd., priority 1983, dated 1986).
# Experiments:
# L5178Y mouse tumor cells = experiment: growth inhibition of cultured L5178Y cells; type: cell-based; conditions: 72 hours incubation with drug, cell count vs non-treated control, read-out: IC50 (50% growth inhibitory concentration)
# Description: 1×10^4 L5178Y mouse tumor cells were suspended in 2 ml of a RPMI-1640 medium containing 10% of bovine fetal serum, 20 μM of 2-mercaptoethanol and 100 μg/ml kanamycin (Nissui Pharmaceutical Co., Ltd. Japan), and incubated at 37° C. for 24 hours before addition of the drug. Using the above culture fluid as a diluent, the compound of Example 1 was diluted 1/4-fold in a series of 5 stages, the maximum concentration of the compound in the medium being 200 μg/ml. The dilutions were further incubated for 72 hours, at the end of which time the cells were counted and the IC50 (50% growth inhibitory concentration) was calculated with the count for the non-treated control group being taken as 100%.
# [1] = test system: rat liver tRNA-guanine transglycosylase; experiment: uptake of compound into tRNA ([3H]-guanine labeled tRNA exchange); type: biochemical; conditions: 0.02 OD260 of compound, 37° C., 17 hours, 0.5 unit enzyme
# Description: [^3 H]-Guanine labeled tRNA^(*^) (8000 cpm), 70 mM of tris hydrochloride, 60 mM of magnesium chloride, 0.5 unit of rat liver tRNA-guanine transglycosylase and 0.02 OD260 of the compound of Example 1 (which appears hereinafter) (100 μl) were incubated at 37° C. for 17 hours. The reaction mixture was applied to a Whatman 3 MM filter paper (Whatman Co., U.S.A.) and washed 3 times with a 5% aqueous solution of trichloroacetic acid and, then, once each with ethanol/ether (1:1) and ether alone. After drying, the uptake of the test compound was determined in a toluenic scintillation fluid.
# ^(*^) tRNA with the firstletter (base) of its anticodon labeled with [^3 H]guanine.
# The uptake of the compound of Example 2 into tRNA was determined in the same manner as Experimental Example 1. The result was 57%.
# Meth A tumor cells = experiment: Meth A tumor growth inhibition in mice; type: in vivo; conditions: BALB/c mouse, s.c. transplant, 100 mg/kg i.p. once daily for 14 days from day 4, tumor weight on 35th day
# Description: 5×10^4 Meth A tumor cells were subcutaneously transplanted into a BALB/c mouse weighing 20 g and starting on the 4th day after transplantation, a solution of the compound of Example 1 in 0.1 ml of distilled water was intraperitoneally injected into the mouse once daily in a dose of 100 mg/kg for 14 consecutive days. On the 35th day after transplantation, the tumor node was enucleated and weighed.
Structure (SMILES),IC50 (L5178Y mouse tumor cells) [µg/mL],uptake of the test compound into tRNA (% of tRNA) [1] [%],tumor growth inhibition rate (Meth A tumor cells) [%]
"Nc1nc2[nH]cc(CN[C@H]3C=C[C@H](O)[C@@H]3O)c2c(=S)[nH]1 [Example 1, 2-amino-5-[(3S,4R,5S)-4,5-dihydroxycyclopent-1-en-3-ylaminomethy-]pyrrolo[2,3-d]pyrimidine-4-thione]",22,81,71
"NCc1c[nH]c2nc(N)[nH]c(=S)c12 [Example 2, 2-amino-5-aminomethylpyrrolo[2,3-d]pyrimidine-4-thione]",–,57,–
